From article PMC10311946 (ACS chemical biology, 2023)
Several values for one entry are separate records, joined by “and”; a condition that tells them apart may be missing. Identical values can stand only once. Entries after “also recorded” stand apart in the source; their conditions may differ. Like-named read-outs stand apart in the source and are kept apart here.

Assays:
[1] = system: fluoroacetyl-CoA hydrolase; conditions: cited from earlier work
[2] = system: FabH C112Q; format: biochemical, Escherichia coli; conditions: for Initial rate of hydrolysis to CoA or oxa(dethia)CoA / Initial rate, malonyl-CoA → acetyl-CoA/acetoacetyl-CoA: FabH C112Q, 10 μM enzyme; for stability with the FabH C112Q mutant: over 24 hours, 10 μM FabH C112Q
[3] = target: T1, FabH (Escherichia coli, UniProt P0A6R0); experiment: continuous UV-Vis assay for the production of acetoacetyl-CoA; format: biochemical; conditions: for effect on FabH activity with acetyl-CoA and malonyl-CoA as substrates: UV-Vis assays
T1 sequence (P0A6R0 whole entry): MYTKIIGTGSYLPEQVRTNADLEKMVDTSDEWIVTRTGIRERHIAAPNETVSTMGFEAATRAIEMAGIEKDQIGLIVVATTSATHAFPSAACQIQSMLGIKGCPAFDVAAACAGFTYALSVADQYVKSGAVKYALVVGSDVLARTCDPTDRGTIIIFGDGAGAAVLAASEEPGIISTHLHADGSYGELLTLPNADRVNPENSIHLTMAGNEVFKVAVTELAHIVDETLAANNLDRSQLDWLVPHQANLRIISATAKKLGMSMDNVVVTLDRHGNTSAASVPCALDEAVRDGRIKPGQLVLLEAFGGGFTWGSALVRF

[4] = non-enzymatic stability/hydrolysis in buffer followed by HPLC; format: physicochemical; conditions: for Non-enzymatic hydrolysis rate: pH 6 and 7
[5] = system: E. coli FabH; conditions: for Initial rate of hydrolysis to CoA or oxa(dethia)CoA / Initial rate, malonyl-CoA → acetyl-CoA/acetoacetyl-CoA: FabH wt, 10 μM FabH; for activating potential for FabH decarboxylation of malonyl-CoA to acetoacetyl-CoA: FabH incubated with 125 μM analog then 250 μM malonyl-CoA, HPLC progress curves; for time to reaction completion: FabH
[6] = target: T1, FabH; conditions: cited from earlier work
[7] = system: citrate synthase; conditions: cited from earlier work
[8] = system: phosphotransacetylase; conditions: cited from earlier work
[9] = pH 6, ~250 μM substrate or analog
[10] = pH 7, ~250 μM substrate or analog
[11] = pH 8, ~250 μM substrate or analog
[12] = competition with malonyl-CoA binding assumed, pH 8.0, 50 mM Mg2+
[13] = varying malonyl-CoA, acetyl-CoA at 125 μM, substrate inhibition model

CC(C)(COP(=O)(O)OP(=O)(O)OC[C@H]1O[C@@H](n2cnc3c(N)ncnc32)[C@H](O)[C@@H]1OP(=O)(O)O)[C@@H](O)C(=O)NCCC(=O)NCCSC(=O)CF [fluoroacetyl-CoA]
Km [1]: 8 µM

CC(=O)SCCNC(=O)CCNC(=O)[C@H](O)C(C)(C)COP(=O)(O)OP(=O)(O)OC[C@H]1O[C@@H](n2cnc3c(N)ncnc32)[C@H](O)[C@@H]1OP(=O)(O)O [acetyl-CoA]
Initial rate of hydrolysis to CoA or oxa(dethia)CoA [2, 9]: 0.0005 ± 0.0001 min⁻¹ | Initial rate of hydrolysis to CoA or oxa(dethia)CoA [2, 10]: 0.0006 ± 0.0001 min⁻¹ | Initial rate of hydrolysis to CoA or oxa(dethia)CoA [2, 11]: 0.0030 ± 0.0001 min⁻¹ | Km ([3]; read-out: apparent Km, varying acetyl-CoA with 125 μM malonyl-CoA): 0.3 ± 0.1 µM | Non-enzymatic hydrolysis rate [4]: ~ 0.0004 min^−1 | Non-enzymatic hydrolysis rate at pH 8 relative to pH 6 and 7 [4]: ~ 10 times higher | Initial rate of hydrolysis to CoA or oxa(dethia)CoA [5, 9]: 0.0004 ± 0.0001 min⁻¹ | Initial rate of hydrolysis to CoA or oxa(dethia)CoA [5, 10]: 0.0010 ± 0.0001 min⁻¹ | Initial rate of hydrolysis to CoA or oxa(dethia)CoA [5, 11]: 0.0038 ± 0.0002 min⁻¹ | transthiolation rate [6]: 0.05 s⁻¹ | Km ([6]; read-out: apparent KM, pH 7.0, malonyl-S-ACP as acceptor ref 32, 35): 40 µM | Km [7]: 8.5 µM | Km [8]: 210 µM

CC(=O)NCCNC(=O)CCNC(=O)[C@H](O)C(C)(C)COP(=O)(O)OP(=O)(O)OC[C@H]1O[C@@H](n2cnc3c(N)ncnc32)[C@H](O)[C@@H]1OP(=O)(O)O [compound 2, acetyl-aza(dethia)CoA]
effect on FabH activity with acetyl-CoA and malonyl-CoA as substrates [3]: moderate inhibitor | Ki ([3]; competition with malonyl-CoA binding assumed): 800 µM | Ki [3, 12]: 800 ± 100 µM | activating potential for FabH decarboxylation of malonyl-CoA to acetoacetyl-CoA [5]: not strong activators | Ki [7]: 1.6 µM | Ki [8]: 130 µM

CC(C)(COP(=O)(O)OP(=O)(O)OC[C@H]1O[C@@H](n2cnc3c(N)ncnc32)[C@H](O)[C@@H]1OP(=O)(O)O)[C@@H](O)C(=O)NCCC(=O)NCCNC(=O)CC(=O)O [compound 4, malonyl-aza(dethia)CoA]
stability with the FabH C112Q mutant [2]: completely stable | Ki [3, 12]: 700 ± 300 µM

CC(C)(COP(=O)(O)OP(=O)(O)OC[C@H]1O[C@@H](n2cnc3c(N)ncnc32)[C@H](O)[C@@H]1OP(=O)(O)O)[C@@H](O)C(=O)NCCC(=O)NCCS [CoA]
Ki [3, 12]: 150 ± 70 µM

CC(C)(COP(=O)(O)OP(=O)(O)OC[C@H]1O[C@@H](n2cnc3c(N)ncnc32)[C@H](O)[C@@H]1OP(=O)(O)O)[C@@H](O)C(=O)NCCC(=O)NCCN [compound 6, aza(dethia)CoA]
Ki [3, 12]: 900 ± 400 µM

CC(C)(COP(=O)(O)OP(=O)(O)OC[C@H]1O[C@@H](n2cnc3c(N)ncnc32)[C@H](O)[C@@H]1OP(=O)(O)O)[C@@H](O)C(=O)NCCC(=O)NCCOC(=O)CC(=O)O [compound 3, malonyl-oxa(dethia)CoA]
Decarboxylation by C112Q mutant [2]: not detected | Initial rate of hydrolysis to CoA or oxa(dethia)CoA [2, 11]: ~ 0.001 min^−1 | stability with the FabH C112Q mutant [2]: relatively unreactive | Ki [3, 12]: 800 ± 400 µM | Decarboxylation by FabH [5]: not detected | Initial rate of hydrolysis to CoA or oxa(dethia)CoA [5, 11]: ~ 0.001 min^−1

CC(C)(COP(=O)(O)OP(=O)(O)OC[C@H]1O[C@@H](n2cnc3c(N)ncnc32)[C@H](O)[C@@H]1OP(=O)(O)O)[C@@H](O)C(=O)NCCC(=O)NCCO [compound 5, oxa(dethia)CoA]
Ki [3, 12]: 400 ± 200 µM

CC(=O)OCCNC(=O)CCNC(=O)[C@H](O)C(C)(C)COP(=O)(O)OP(=O)(O)OC[C@H]1O[C@@H](n2cnc3c(N)ncnc32)[C@H](O)[C@@H]1OP(=O)(O)O [compound 1, acetyl-oxa(dethia)CoA]
Initial rate of hydrolysis to CoA or oxa(dethia)CoA [2, 11]: ~ 0.001 min^−1 | effect on FabH activity with acetyl-CoA and malonyl-CoA as substrates [3]: slightly activating; also recorded: did not find inhibition; also recorded: a couple percent activation | Ki [3, 12]: weak activation | activating potential for FabH decarboxylation of malonyl-CoA to acetoacetyl-CoA [5]: not strong activators | Initial rate of hydrolysis to CoA or oxa(dethia)CoA [5, 11]: ~ 0.003 min^−1

CC(C)(COP(=O)(O)OP(=O)(O)OCC1OC(n2cnc3c(N)ncnc32)C(O)C1OP(=O)(O)O)C(O)C(=O)NCCC(=O)NCCNC(=O)CF (stereo not drawn) [fluoroacetyl-aza(dethia)CoA]
Kd [1]: 1700 µM

CC(C)(COP(=O)(O)OP(=O)(O)OC[C@H]1O[C@@H](n2cnc3c(N)ncnc32)[C@H](O)[C@@H]1OP(=O)(O)O)[C@@H](O)C(=O)NCCC(=O)NCCOC(=O)CF [fluoroacetyl-oxa(dethia)CoA]
Kd [1]: 90 µM

CC(C)(COP(=O)(O)OP(=O)(O)OC[C@H]1O[C@@H](n2cnc3c(N)ncnc32)[C@H](O)[C@@H]1OP(=O)(O)O)[C@@H](O)C(=O)NCCC(=O)NCCSC(=O)CC(=O)O [malonyl-CoA]
FabH C112Q decarboxylation relative to activated wild-type in the absence of acetyl-CoA [2]: 5 times faster | Initial rate of hydrolysis to CoA or oxa(dethia)CoA [2, 9]: 0.0005 ± 0.0001 min⁻¹ | Initial rate, malonyl-CoA → acetyl-CoA/acetoacetyl-CoA ([2]; pH 6, ~250 μM substrate): 0.0060 ± 0.0006 min⁻¹ | Initial rate of hydrolysis to CoA or oxa(dethia)CoA [2, 10]: 0.0007 ± 0.0001 min⁻¹ | Initial rate, malonyl-CoA → acetyl-CoA/acetoacetyl-CoA ([2]; pH 7, ~250 μM substrate): 0.18 ± 0.01 min⁻¹ | Initial rate of hydrolysis to CoA or oxa(dethia)CoA [2, 11]: 0.0032 ± 0.0005 min⁻¹ | Initial rate, malonyl-CoA → acetyl-CoA/acetoacetyl-CoA ([2]; pH 8, ~250 μM substrate): 0.20 ± 0.02 min⁻¹ | Ki ([3]; read-out: Ki (substrate inhibition), varying malonyl-CoA, acetyl-CoA at 125 μM, substrate inhibition model): 1900 ± 600 µM | Km [3, 13]: 2500 µM and ~2500 µM | kcat [3, 13]: 0.0983 ± 0.0233 s⁻¹ | Non-enzymatic hydrolysis rate [4]: ~ 0.0004 min^−1 | Non-enzymatic hydrolysis rate at pH 8 relative to pH 6 and 7 [4]: ~ 10 times higher | Initial rate, malonyl-CoA → acetyl-CoA/acetoacetyl-CoA ([5]; pH 7, ~250 μM substrate): biphasic | Initial rate, malonyl-CoA → acetyl-CoA/acetoacetyl-CoA ([5]; pH 8, ~250 μM substrate, 25 μM acetyl-CoA to alleviate lag phase, value is for acetoacetyl-CoA appearance): 0.043 ± 0.001^‡ min^−1 | time to reaction completion ([5]; malonyl-CoA with priming acetyl-CoA (10% of malonyl-CoA)): about 250 min | time to reaction completion ([5]; malonyl-CoA without priming acetyl-CoA (Figure 2J)): 620 min
